Experimental data from patent US8193237B2, “Indole derivative having IκB kinase β inhibitory activity” (Santen Pharmaceutical Co., Ltd., priority 2007, dated 2012).

What follows are molecules tested against T1, IKKβ (Homo sapiens, UniProt O14920) (assay: IKKβ inhibition assay by fluorescence polarization (IMAP kit)). Conditions: test compound at 1 μM; inhibition rate exceeding 100% is indicated as 100%.
T1 construct: purchased Upstate Biotechnology Inc. 14-485
T1 sequence (O14920 1-756): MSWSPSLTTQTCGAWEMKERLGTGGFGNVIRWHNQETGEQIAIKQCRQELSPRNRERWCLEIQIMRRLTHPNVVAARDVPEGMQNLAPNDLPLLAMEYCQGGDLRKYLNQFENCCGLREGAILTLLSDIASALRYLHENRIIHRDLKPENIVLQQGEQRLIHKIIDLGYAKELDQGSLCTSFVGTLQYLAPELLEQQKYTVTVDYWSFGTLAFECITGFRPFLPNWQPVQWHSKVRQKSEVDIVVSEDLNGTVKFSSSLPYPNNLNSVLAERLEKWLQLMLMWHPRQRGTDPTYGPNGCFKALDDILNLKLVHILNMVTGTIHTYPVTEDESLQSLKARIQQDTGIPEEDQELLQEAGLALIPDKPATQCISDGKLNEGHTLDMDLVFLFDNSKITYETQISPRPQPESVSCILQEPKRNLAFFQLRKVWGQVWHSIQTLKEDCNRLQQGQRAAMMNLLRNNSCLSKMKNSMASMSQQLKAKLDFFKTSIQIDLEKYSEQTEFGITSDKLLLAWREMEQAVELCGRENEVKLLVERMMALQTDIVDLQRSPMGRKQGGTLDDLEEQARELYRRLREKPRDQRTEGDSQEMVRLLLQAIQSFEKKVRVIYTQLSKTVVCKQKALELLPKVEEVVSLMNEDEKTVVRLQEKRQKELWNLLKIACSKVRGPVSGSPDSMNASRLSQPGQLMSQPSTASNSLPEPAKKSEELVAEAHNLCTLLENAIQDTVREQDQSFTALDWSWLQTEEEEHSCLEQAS
Type: biochemical
Method: In order to evaluate IKKβ inhibitory activity of the present compounds, an IKKβ inhibition assay by the fluorescence polarization method was conducted.
The assay was conducted using IMAP™ IKKβ assay kit (manufactured by Molecular Devices Corporation, catalogue No. R8115) or IMAP™ FP Screening Express kit (manufactured by Molecular Devices Corporation, catalogue No. R8127) and in accordance with the protocol attached to each kit. The specific methods are described below. (Preparation of Reagents)
1) Complete Reaction Buffer: a complete reaction buffer was so prepared as to obtain a final concentration of 10 mM Tris-HCL (pH 7.2), 10 mM magnesium chloride, 0.1% bovine serum albumin, and 1 mM dithiothreitol.
2) Substrate Working Solution: 400 nM of a substrate working solution was prepared by dissolving and diluting a fluorescein-labeled IKKβ substrate peptide (amino acid sequence: GRHDSGLDSMK) with the complete reaction buffer.
3) Enzyme Working Solution: 0.2 units/mL of an enzyme working solution was prepared by diluting IKKβ solution (manufactured by Upstate Biotechnology Inc., catalogue No. 14-485) with the complete reaction buffer.
4) ATP Working Solution: 8 μM of an ATP working solution was prepared by dissolving ATP into ultrapure water followed by diluting it with the complete reaction buffer.
5) IMAP binding solution: After diluting an IMAP binding buffer with ultrapure water, an IMAP binding solution was prepared by diluting an IMAP binding reagent with the diluted IMAP binding buffer.
A test compound was dissolved in dimethylsulfoxide followed by diluting it with the complete reaction buffer to prepare 4 μM of a test compound solution.
1) To a 384-well plate, the test compound solution, the enzyme working solution, the substrate working solution, and the ATP working solution were added in an amount of 5 μL per well.
2) Incubation was performed at a room temperature for 60 minutes under light shielding.
3) The IMAP binding solution was added in an amount of 60 μL per well.
4) Incubation was performed at a room temperature for 30 minutes under light shielding.
5) Fluorescence polarization value of each well was measured by using Analyst™ HT (multimode plate reader manufactured by Molecular Devices Corporation) and Criterion Host Software v2.00 (manufactured by Molecular Devices Corporation).
6) Operations were performed in the same manner as in 1) to 5) except for changing the test compound to 0.4% dimethylsulfoxide. The obtained result was designated as a control.
7) Operations were performed in the same manner as in 1) to 5) except for changing the test compound and the enzyme working solution to 0.4% dimethylsulfoxide and the complete reaction buffer, respectively. The obtained result was designated as a background.
An IKKβ inhibition rate (%) was calculated by the following equation.
IKKβ inhibition rate (%)=100×{1−(fluorescence polarization value of test compound−fluorescence polarization value of background)/(fluorescence polarization value of control−fluorescence polarization value of background)}
An inhibition at 1 µM of 86% was found for `NC(=O)Nc1c(C(N)=O)c2ccc(Br)cc2n1O` [Compound 1-1, 2-Aminocarbonylamino-6-bromo-1-hydroxyindole-3-carboxamide] in this work.
An inhibition at 1 µM of 55% was found for `Cc1ccc2[nH]c(NC(N)=O)c(C(N)=O)c2c1` [Compound 1-2, 2-Aminocarbonylamino-5-methylindole-3-carboxamide] in this work.
An inhibition at 1 µM of 80% was found for `CC(=O)Nc1ccc2c(C(N)=O)c(NC(N)=O)[nH]c2c1` [Compound 2-1, 6-Acetylamino-2-aminocarbonylaminoindole-3-carboxamide] in this work.
An inhibition at 1 µM of 49% was found for `NC(=O)Nc1[nH]c2cc(NC(=O)c3ccccc3)ccc2c1C(N)=O` [Compound 2-2, 2-Aminocarbonylamino-6-benzoylaminoindole-3-carboxamide] in this work.
An inhibition at 1 µM of 56% was found for `NC(=O)Nc1[nH]c2cc(NC(=O)Nc3ccccc3)ccc2c1C(N)=O` [Compound 2-3, 2-Aminocarbonylamino-6-(3-phenylureido)indole-3-carboxamide] in this work.
An inhibition at 1 µM of 95% was found for `CN(C)c1ccc2c(C(N)=O)c(NC(N)=O)[nH]c2c1` [Compound 2-4, 2-Aminocarbonylamino-6-dimethylaminoindole-3-carboxamide] in this work.
An inhibition at 1 µM of 86% was found for `NC(=O)Nc1[nH]c2cc(N3CCCC3)ccc2c1C(N)=O` [Compound 2-5, 2-Aminocarbonylamino-6-(pyrrolidin-1-yl)indole-3-carboxamide] in this work.
An inhibition at 1 µM of 100% was found for `NC(=O)Nc1[nH]c2cc(-n3cccc3)ccc2c1C(N)=O` [Compound 2-9, 2-Aminocarbonylamino-6-(pyrrol-1-yl)indole-3-carboxamide] in this work.
An inhibition at 1 µM of 75% was found for `NC(=O)Nc1[nH]c2ccccc2c1C(N)=O` [Compound 2-10, 2-Aminocarbonylaminoindole-3-carboxamide] in this work.
An inhibition at 1 µM of 96% was found for `Cc1c(Br)ccc2c(C(N)=O)c(NC(N)=O)[nH]c12` [Compound 2-11, 2-Aminocarbonylamino-6-bromo-7-methylindole-3-carboxamide] in this work.
An inhibition at 1 µM of 95% was found for `NC(=O)Nc1[nH]c2cc(C(F)(F)F)ccc2c1C(N)=O` [Compound 2-16, 2-Aminocarbonylamino-6-trifluoromethylindole-3-carboximide] in this work.
An inhibition at 1 µM of 100% was found for `COC(=O)c1ccc2c(C(N)=O)c(NC(N)=O)[nH]c2c1` [Compound 2-17, 2-aminocarbonylamino-6-methoxycarbonylindole-3-carboxamide] in this work.
An inhibition at 1 µM of 100% was found for `NC(=O)Nc1[nH]c2cc(Br)ccc2c1C(N)=O` [Compound 3-1, 2-Aminocarbonylamino-6-bromoindole-3-carboxamide] in this work.
An inhibition at 1 µM of 97% was found for `NC(=O)Nc1[nH]c2cc(-c3ccc(F)cc3)ccc2c1C(N)=O` [Compound 4-1, 2-Aminocarbonylamino-6-(4-fluorophenyl)indole-3-carboxamide] in this work.
An inhibition at 1 µM of 100% was found for `NC(=O)Nc1[nH]c2cc(-c3ccccc3)ccc2c1C(N)=O` [Compound 4-2, 2-Aminocarbonylamino-6-phenylindole-3-carboxamide] in this work.
An inhibition at 1 µM of 98% was found for `COc1cccc(-c2ccc3c(C(N)=O)c(NC(N)=O)[nH]c3c2)c1` [Compound 4-4, 2-Aminocarbonylamino-6-(3-methoxyphenyl)indole-3-carboxamide] in this work.
An inhibition at 1 µM of 100% was found for `NC(=O)Nc1[nH]c2cc(-c3cccs3)ccc2c1C(N)=O` [Compound 4-8, 2-Aminocarbonylamino-6-(thiophen-2-yl)indole-3-carboxamide] in this work.
An inhibition at 1 µM of 100% was found for `NC(=O)Nc1[nH]c2cc(-c3cccnc3)ccc2c1C(N)=O` [Compound 4-9, 2-Aminocarbonylamino-6-(pyridin-3-yl)indole-3-carboxamide] in this work.
An inhibition at 1 µM of 100% was found for `NC(=O)Nc1[nH]c2cc(-c3ccccc3F)ccc2c1C(N)=O` [Compound 4-10, 2-Aminocarbonylamino-6-(2-fluorophenyl)indole-3-carboxamide] in this work.
An inhibition at 1 µM of 100% was found for `NC(=O)Nc1[nH]c2cc(-c3cccc(F)c3)ccc2c1C(N)=O` [Compound 4-11, 2-Aminocarbonylamino-6-(3-fluorophenyl)indole-3-carboxamide] in this work.
An inhibition at 1 µM of 100% was found for `N#Cc1cccc(-c2ccc3c(C(N)=O)c(NC(N)=O)[nH]c3c2)c1` [Compound 4-15, 2-Aminocarbonylamino-6-(3-cyanophenyl)indole-3-carboxamide] in this work.
An inhibition at 1 µM of 100% was found for `NC(=O)Nc1[nH]c2cc(-c3cccc([N+](=O)[O-])c3)ccc2c1C(N)=O` [Compound 4-16, 2-Aminocarbonylamino-6-(3-nitrophenyl)indole-3-carboxamide] in this work.
An inhibition at 1 µM of 100% was found for `CS(=O)(=O)Nc1cccc(-c2ccc3c(C(N)=O)c(NC(N)=O)[nH]c3c2)c1` [Compound 4-17, 2-Aminocarbonylamino-6-(3-methylsulfonylaminophenyl)indole-3-carboxamide] in this work.
An inhibition at 1 µM of 98% was found for `NC(=O)Nc1[nH]c2cc(-c3ccsc3)ccc2c1C(N)=O` [Compound 4-18, 2-Aminocarbonylamino-6-(thiophen-3-yl)indole-3-carboxamide] in this work.
An inhibition at 1 µM of 100% was found for `NC(=O)Nc1[nH]c2cc(-c3ccco3)ccc2c1C(N)=O` [Compound 4-19, 2-Aminocarbonylamino-6-(furan-2-yl)indole-3-carboxamide] in this work.
An inhibition at 1 µM of 100% was found for `NC(=O)Nc1[nH]c2cc(-c3ccoc3)ccc2c1C(N)=O` [Compound 4-22, 2-Aminocarbonylamino-6-(furan-3-yl)indole-3-carboxamide] in this work.
An inhibition at 1 µM of 100% was found for `NC(=O)Nc1[nH]c2cc(-c3ccsc3Cl)ccc2c1C(N)=O` [Compound 4-23, 2-Aminocarbonylamino-6-(2-chlorothiophen-3-yl)indole-3-carboxamide] in this work.
An inhibition at 1 µM of 99% was found for `NC(=O)Nc1[nH]c2cc(-c3cnc4ccccc4c3)ccc2c1C(N)=O` [Compound 4-36, 2-Aminocarbonylamino-6-(quinolin-3-yl)indole-3-carboxamide] in this work.
An inhibition at 1 µM of 100% was found for `C=Cc1ccc2c(C(N)=O)c(NC(N)=O)[nH]c2c1` [Compound 4-38, 2-Aminocarbonylamino-6-vinylindole-3-carboxamide] in this work.
An inhibition at 1 µM of 99% was found for `COC/C=C/c1ccc2c(C(N)=O)c(NC(N)=O)[nH]c2c1` [Compound 4-58, 2-Aminocarbonylamino-6-[(E)-3-methoxy-1-propenyl]indole-3-carboxamide] in this work.
An inhibition at 1 µM of 100% was found for `NC(=O)Nc1[nH]c2cc(-c3ccc4[nH]ccc4c3)ccc2c1C(N)=O` [Compound 4-65, 2-Aminocarbonylamino-6-(indol-5-yl)indole-3-carboxamide] in this work.
An inhibition at 1 µM of 94% was found for `CCC/C=C/c1ccc2c(C(N)=O)c(NC(N)=O)[nH]c2c1` [Compound 4-67, 2-Aminocarbonylamino-6-[(E)-1-pentenyl]indole-3-carboxamide] in this work.
An inhibition at 1 µM of 95% was found for `CN(C)c1ccc(-c2ccc3c(C(N)=O)c(NC(N)=O)[nH]c3c2)cc1` [Compound 4-78, 2-Aminocarbonylamino-6-(4-dimethylaminophenyl)indole-3-carboxamide] in this work.
An inhibition at 1 µM of 96% was found for `Cc1c(-c2ccoc2)ccc2c(C(N)=O)c(NC(N)=O)[nH]c12` [Compound 4-81, 2-Aminocarbonylamino-6-(furan-3-yl)-7-methylindole-3-carboxamide] in this work.
An inhibition at 1 µM of 95% was found for `NC(=O)Nc1[nH]c2cc(-c3ccc[nH]3)ccc2c1C(N)=O` [Compound 5-1, 2-Aminocarbonylamino-6-(pyrrol-2-yl)indole-3-carboxamide] in this work.
